By AC50 is commonly meant the concentration giving half of the maximal activity seen.

SMILES strings stand for the structures. Calls of active or inactive are those of the source.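 Rule for the calls: active = AC50 no more than tenfold above the top dose tested, or full inhibition at every dose with a flat fit (cut at about 19 µM in these data); inconclusive = flat curve fit with inhibition between 30% and 70%, or poor fit; inactive = AC50 more than tenfold above the top dose tested.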

The assay relates to HMLE_sh_eGFP viability, CellTiter-Glo luminescence, 72 h. Put plainly: cytotoxicity in HMLE control line with eGFP shRNA, dose response, counter-screen for HMLE_sh_ECad selective toxicity project, cell-based, HMLE_sh_eGFP, luminescence (AID 463074).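 Note: potency for loss of viability as luminescence drops below DMSO wells.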 Background: The purpose of a counterscreen is to sort out artefacts and off-target activity.
With `Cc1ccc(C)c(NC(=O)CSc2nc3nc(-c4cccs4)cc(C(F)(F)F)c3c(=O)[nH]2)c1`, the concentration at half-maximal activity (AC50) was 4.39 µM.
The same measure for `NCC(c1ccc(Cl)cc1Cl)c1c[nH]c2ccccc12` (configuration not stated): 11.9 µM; for `CCNC(=S)N1N=C2c3ccccc3CCC2C1c1ccc(F)cc1` (configuration not stated): 2.91 µM.
The same measure for `CCC(c1nnnn1Cc1ccco1)N1CCN(c2cc(Cl)ccc2C)CC1` (configuration not stated): 4.04 µM; for `c1cn2c(NC3CCCCC3)c(-c3ccc(SC4CCCCC4)cc3)nc2cn1`: 3.26 µM; for `CCOC(=O)c1c2ccc(OCC(=O)N/N=C/c3ccc(C)cc3)cc2n2ccccc12`: 11.8 µM.
`CC(C)c1cccc(C(C)C)c1OC(=O)[C@H]1OC(c2ccc(Br)cc2)=C[C@@H]1c1ccc(Br)cc1`: the AC50 is 4.64 µM.
As to `O=C(Nc1ccc(Cl)cc1)Nc1ccccc1Sc1ncc([N+](=O)[O-])s1`, the concentration at half-maximal activity (AC50) was 6.81 µM.
For `CN1CCN(C2Cc3ccc(F)cc3Sc3cc(F)c(Cl)cc32)CC1` (configuration not stated) the value was 5.49 µM; for `O=c1nc(/C=C/c2ccc(Cl)cc2Cl)cc(C(F)(F)F)[nH]1`, 1.55 µM.
The same measure for `CC#CCOC(=O)c1c(C)nc2sc3c(c2c1N)CCC(O)C3` (configuration not stated): 2.65 µM.
As to `CCOC(=O)N1CCN(S(=O)(=O)c2ccc(C(=O)NNc3nc4cc(C)cc(C)c4s3)cc2)CC1`, the half-maximal activity concentration (AC50) was 3.7 µM.
For `Cc1nc2ccccc2n1/N=C/c1ccc([N+](=O)[O-])o1` the value was 13.9 µM; for `COc1ccc(NC(=O)c2c(N)no[n+]2[O-])cc1`, 1.34 µM.
For `O=C(Nc1ccc(CN2CCOCC2)cc1)c1ccc(-c2ccc(Cl)cc2Cl)o1` the value was 7.06 µM.
As to `CCOC(=O)C(=Cc1ccc(-n2ccnc2)cc1)C(=O)OCC`, the half-maximal activity concentration (AC50) was 7.68 µM.
For `CCCCOC(=O)c1c(C)oc2ccc(NS(=O)(=O)c3ccc4c5c(cccc35)C(=O)N4)cc12` the value was 9.12 µM; for `O=C(NCc1ccc(Cl)cc1)c1cccc(NC(=O)c2ccccc2)c1`, 6.79 µM; for `C=C1CCc2c([nH]c3ccc(OCC(C)C)cc23)C1=O`, 5.57 µM.
With `CSc1nc2ccccc2cc1/C=C(\C#N)c1cccc(Cl)c1`, the AC50 was 2.73 µM.
Take `O=C(Nc1ccc(Cl)cc1)c1cc2c(cc1O)[nH]c1ccccc12`: the half-maximal activity concentration (AC50) was 0.488 µM.
`O=C(Nc1ccc(C(O)(C(F)(F)F)C(F)(F)F)cc1)c1ccc(Cl)c([N+](=O)[O-])c1`: the AC50 was 7.08 µM.
On to `COc1ccc(-c2sc3ccccc3c2/C=C/c2ccncc2)cc1`, for which the AC50 was 6.68 µM.
In the case of `c1cc2cc(-c3c(-c4ccc5c(c4)OCO5)noc3-c3ccsc3)ccc2[nH]1`, the concentration at half-maximal activity (AC50) was 4.19 µM.
As for `CCc1ccc2oc(C(=O)NCC(c3ccc(OC)cc3)N3CCCCC3)c(C)c2c1` (configuration not stated), the AC50 is 6.09 µM.
With `O=c1[nH]c(=O)n(CCC2=CCCCC2)c(O)c1/C=N/Nc1ccccc1`, the concentration at half-maximal activity (AC50) was 3.76 µM.
For `COc1ccc(-c2oc3ccccc3c2C#Cc2cncn2C)cc1`, the concentration at half-maximal activity (AC50) was 4.37 µM.
The same measure for `CCOC(=O)c1[nH]c(C)c(C(=O)OCc2ccccc2F)c1C`: 1.03 µM.
For `C[C@H](CO)N1C[C@H](C)[C@@H](CN(C)S(=O)(=O)c2ccc(F)cc2)Oc2ccc(NC(=O)Nc3ccc(C(F)(F)F)cc3)cc2C1=O` the value was 17.1 µM; for `c1ccc(-c2sc3ccccc3c2-c2ccc(OCCN3CCCC3)cc2)cc1`, 2.37 µM.
As for `Cc1ccc(/C=N/Nc2cc(C)nc(NCc3ccccc3)n2)cc1`, the AC50 is 7.16 µM.
With `N#Cc1c(N)nc2c(c1-c1cccc(O)c1)CCCCCC2`, the concentration at half-maximal activity (AC50) is 16.3 µM.
With `Cc1ccc(S(=O)(=O)Nc2ccc(-c3csc(-c4ccccc4)n3)cc2)cc1`, the AC50 is 6.85 µM.
On to `Cc1nc2ccccc2n1-c1nc(-c2ccco2)cc(C(F)(F)F)n1`, for which the concentration at half-maximal activity (AC50) is 0.817 µM.
Consider `CC(=O)NNc1cccc(Cl)n1`, for which the AC50 is > 19.5 µM (inactive).
The same measure for `Cc1ccc(-c2csc(NCCn3c(-c4ccncc4)nc4cc(C(F)(F)F)ccc43)n2)cc1`: 10.7 µM; for `Cc1ccc(/C=C/C(=O)Nc2ccc(Oc3ccccc3)cc2)o1`: 5.42 µM.
For `O=C(Nc1cccc(Cl)c1)Nc1cc(S(=O)(=O)N2CCCCC2)ccc1Cl` the value was 2.82 µM; for `COc1ccc(Br)cc1C(=O)Nc1cccc(C)c1`, > 19.5 µM (inactive); for `O=C(c1cnc2ccc3ccccc3c2c1)c1cc(F)ccc1O`, 0.86 µM.
Regarding `CCCNC(=O)c1onc(CSc2ccc(Cl)cc2)c1C(=O)NCCC(C)C`, the half-maximal activity concentration (AC50) is 2.99 µM.
Consider `CCC1CSC(Nc2ccc(C(=O)/C=C/c3ccc(Br)cc3)cc2)=N1` (configuration not stated), for which the half-maximal activity concentration (AC50) is 5.68 µM.
For the compound `Cc1ccc(C)c(S(=O)(=O)N2CCN(c3ncnc4sccc34)CC2)c1`, the AC50 is 3.19 µM.
The same measure for `Cc1cc(C)cc(-n2c(C)cc(/C=C3\C(=N)N4N=C(CC(C)C)SC4=NC3=O)c2C)c1`: 4.82 µM; for `Cc1ccc(NS(=O)(=O)c2ccc(Cl)c(NC(=S)NC(=O)C3CCCCC3)c2)cc1Cl`: 3.58 µM.
In the case of `COc1ccc(N=C2NN=C(c3c(C)[nH]c4ccccc34)CS2)cc1`, the AC50 is 7.77 µM.
For `O=S(=O)(N/N=C1/CC(c2ccccc2)Oc2ccccc21)c1ccc(Br)cc1` (configuration not stated) the value was 4.21 µM; for `CC1(C)CC2CC(C)(CN2/C=N/c2sc3c(c2C#N)CC(C)(C)NC3(C)C)C1` (configuration not stated), 2.59 µM.
The same measure for `CC(OC(=O)c1cccs1)C(=O)NC1CCCCC1C` (configuration not stated): > 19.5 µM (inactive); for `Cc1ccc2[nH]c3nc(N/N=C/c4cccc(O)c4)nnc3c2c1`: 0.248 µM; for `C[C@]12CC[C@H](O)C[C@H]1CC[C@@H]1C2CC[C@]2(C)[C@@H](C3=CC(=O)OC3)[C@@H](O)C[C@]12O` (some centres not stated): 1.55 µM.
For the compound `O=C1[C@H]2CCCC[C@H]2C(=O)N1CCCCN1CCN(c2nsc3ccccc23)CC1`, the AC50 was 4.51 µM.
`CCOC(=O)c1sc(NC(=O)Nc2ccccc2Cl)cc1C`: the AC50 was 7.58 µM.
For `CC(=O)NC1=C(C#N)C(c2ccccc2)c2c(ccc3ccccc23)O1` (configuration not stated) the value was 3.44 µM.
The same measure for `C=CCc1cccc(/C=N/NC(=O)c2ccc3nc[nH]c3c2)c1O`: 6.2 µM; for `COc1ccc(-c2csc(NC(=S)NC(=O)/C=C/c3ccco3)n2)cc1Br`: 1.98 µM; for `Cc1ccc(C(=O)Nc2ncc(Cc3ccccc3)s2)o1`: 1 µM.
Regarding `CCOC(=O)c1c(C)sc2c1N(C(=O)CCl)c1cc(Cl)ccc1S2`, the concentration at half-maximal activity (AC50) is 3.66 µM.
For `CCCc1nc2ccccc2c(C(=O)OCC(=O)Nc2ccc(S(=O)(=O)N3CCOCC3)cc2)c1CC` the value was 5.86 µM; for `COc1ccc2nc(C)cc(SCC(=O)N/N=C/c3ccc(O)cc3O)c2c1`, 2.33 µM; for `CC(C)N(CCC(=O)c1ccc2ccccc2c1)Cc1ccccc1`, 9.86 µM.
Consider `Cc1ccc(-c2cc([C@H]3[C@@H]4C=CCC[C@@]4(C)C(=O)N3Cc3ccccc3)ccc2F)cc1`, for which the AC50 was 5.2 µM.
For `CCc1ccc2c(c1)[C@H]1OCC[C@H]1[C@@H](c1cccs1)N2` the value was 2.06 µM.
For `COc1cccc(S(=O)(=O)NCc2ccc(C(=O)Nc3cccc(Cl)c3)cc2)c1` the value was 4.74 µM; for `Cc1ccccc1-n1c(SCC(=O)N/N=C/C=C/c2ccccc2[N+](=O)[O-])nc2ccccc2c1=O`, > 19.5 µM (inactive); for `CC[C@@H]1CC=C[C@H]2[C@H]1C(=O)N(Cc1ccccc1)[C@H]2c1ccoc1`, 7.03 µM.
For `O=C1/C(=C\c2cccc(O)c2O)SC(=S)N1Cc1ccccc1` the value was 4.85 µM.
Turning to `Cc1nn(CCc2nn[nH]n2)c2nc(-c3ccc(C4CCCCC4)cc3)cc(C(F)(F)F)c12`, the half-maximal activity concentration (AC50) is 2.7 µM.
For the compound `COc1ccc(CCN2C(=S)N(C)C(=O)C2CC(=O)Nc2ccc(OC)cc2)cc1` (configuration not stated), the half-maximal activity concentration (AC50) is 17.8 µM.
For `CCCCCCSc1cccc(-c2nc3ccc(Cl)cn3c2NCc2ccccc2)c1` the value was 3.12 µM.
As to `COc1cc(NS(=O)(=O)c2ccc(N/C=C(\C#N)c3nc4cc(Cl)ccc4o3)cc2)nc(OC)n1`, the AC50 is 7.54 µM.
For `CC(=O)O[C@H]1[C@H]2O[C@]23[C@@H]2CC[C@]4(O)C[C@@H](O)CC[C@]4(C)C2CC[C@]3(C)[C@H]1c1ccc(=O)oc1` (some centres not stated) the value was less than 0.16 µM; for `C/C(=N\N=C(/N)SC1CC(=O)N(c2ccc(Cl)c(Cl)c2)C1=O)c1cccs1` (configuration not stated), 7.3 µM.
In the case of `Oc1ccccc1C1=NN(c2ccccc2)C(c2ccccc2)C1` (configuration not stated), the concentration at half-maximal activity (AC50) is 1.63 µM.
For `CCOc1cc(/C=C\c2[nH]c(=O)[nH]c(=O)c2[N+](=O)[O-])ccc1OC(C)CC` (configuration not stated) the value was 8.32 µM; for `COc1cc(/C=C/c2ccc3cccc(OC)c3n2)c(OC(C)=O)c([N+](=O)[O-])c1`, 16.2 µM.
Take `O=c1cc(N2CCCCC2)c(-c2ccccc2)nn1Cc1ccccc1`: the half-maximal activity concentration (AC50) is 12 µM.
As for `CNc1oc(-c2ccc(Cl)cc2)nc1P(=O)(c1ccccc1)c1ccccc1`, the AC50 was 9.43 µM.
`CN(C)CCNC(=O)COc1ccc(C23CC4CC(CC(C4)C2)C3)cc1`: the AC50 was 4.09 µM.
For `CC[C@H](CO)Nc1nc(Nc2cccc(Cl)c2)c2ncn(C(C)C)c2n1` the value was 6.74 µM; for `O=C(Nc1ccc(Cl)cc1)Nc1nnc(-c2ccncc2)s1`, 2.42 µM; for `Cc1cc(C)cc(CC(Cc2nc3ccccc3[nH]2)c2nc3ccccc3[nH]2)c1` (configuration not stated), 7.82 µM.
As for `CCC(=O)NNc1ccc(Br)cc1`, the AC50 was 6.69 µM.
The same measure for `Fc1ccc(C(OCCN2CCN(CCCc3ccccc3)CC2)c2ccc(F)cc2)cc1`: 3.12 µM; for `Cc1cc(-c2ccccc2)n(-c2cc(N/N=C/c3ccccc3O)ncn2)n1`: 0.669 µM; for `CCc1nc(N2CCC(C)CC2)c2oc3ccccc3c2n1`: 7.06 µM.
As to `C=CCC[C@H](Cc1ccc(F)cc1)C(=O)O[C@H](CNC(=O)[C@@H](CC=C)CC(=O)N(CCO)Cc1ccccc1)c1ccccc1`, the AC50 is 7.4 µM.
The same measure for `Cc1cc(C)nc(NC(=O)/C=C/c2ccc3c(c2)OCO3)c1`: 2.8 µM.
The same measure for `OC(COc1cccc2ccccc12)CN1CCN(c2ccc(Cl)cc2)CC1` (configuration not stated): 7.09 µM; for `CCCN(CCC)CCNC(=O)c1cc2c(-c3ccc(Cl)cc3)nn(C)c2s1`: 5.1 µM.
On to `COc1ccc(-c2nn(-c3ccccc3)cc2/C=C2/SC(=S)N(CCC(=O)O)C2=O)c(C)c1`, for which the AC50 is 8.18 µM.
As for `COc1ccc(C(=O)/C=C/c2cc(OC)c(O)c(OC)c2)c(F)c1`, the half-maximal activity concentration (AC50) is 12.3 µM.

(Values after PubChem BioAssay AID463074 (Broad Institute, 2010).)
